Here are results for 27 compounds from patent US20240174636A1, “NOVEL INDOLEAMINE 2,3-DIOXYGENASE INHIBITORS, PROCESSES FOR THE PREPARATION THEREOF AND PHARMACEUTICAL COMPOSITIONS COMPRISING THE SAME” (YUHAN CORPORATION, priority 2021, published 2024).

Chain of IDO1 (P14902 whole entry): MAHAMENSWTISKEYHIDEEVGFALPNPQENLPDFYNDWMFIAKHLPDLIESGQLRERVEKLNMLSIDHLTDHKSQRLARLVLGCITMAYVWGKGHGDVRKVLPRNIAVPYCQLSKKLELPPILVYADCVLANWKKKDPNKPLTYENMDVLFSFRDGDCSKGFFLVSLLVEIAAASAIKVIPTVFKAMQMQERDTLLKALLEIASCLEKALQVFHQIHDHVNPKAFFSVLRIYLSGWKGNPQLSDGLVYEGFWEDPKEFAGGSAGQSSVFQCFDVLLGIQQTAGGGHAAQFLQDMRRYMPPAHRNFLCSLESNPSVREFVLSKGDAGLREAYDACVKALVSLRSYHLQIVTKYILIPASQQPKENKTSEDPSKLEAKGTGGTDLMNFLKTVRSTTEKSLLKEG

This test concerns the target IDO1 (Homo sapiens, UniProt P14902). The experiment in a line: IDO1 cellular activity using HEK293 cells transfected with IDO1 expression vector. It is filed as cell-based. The arrangement: host or cells: HEK293 cells, transient transfection with Lipofectamine 2000. The conditions noted are these: 24 h compound incubation, read-out: Inhibitory Activity (IC50). As to the method:
HEK293 cells were seeded at a density of 30000 cells/well in 100 μl of a culture medium (DMEM supplemented with 10% FBS, penicillin 100 U/ml, and streptomycin 100 μg/ml) in a tissue culture-treated 96 well plate. The cells were cultured in a 5% carbon dioxide incubator for 24 hours, transfected with the IDO1 expression vector (component A in IDO1 cell-based assay kit, catalog #72031, BPS Bioscience) using Lipofectamine 2000 (Life Technologies, #11668027), and then cultured for 24 hours in a 5% carbon dioxide incubator to express the IDO protein.
The activities were measured using a IDO1 cell-based assay kit (catalog #72031, BPS Bioscience). Specifically, an assay medium was prepared by diluting IDO1 assay medium substrate 1 and IDO1 assay medium supplement 2 in a culture medium at a ratio of 1:100, respectively. The test compounds were diluted to the predetermined concentrations in the fresh assay medium. After removing the culture medium using a multi-pipet, 200 μl of each assay medium containing the test material was added into respective well, followed by incubating in a 5% carbon dioxide incubator for 24 hours. The next day, 140 μl of culture medium from each well was transferred to a new 96-well plate. 10 μl of 6.1N trichloroacetic acid was added into each well, which was then cultured in a 50° C. incubator for 30 minutes. The plate was centrifuged at 2500 rpm for 10 minutes to settle any sediment. A detection reagent solution was prepared by diluting the detection reagent (component D in IDO1 cell-based assay kit, catalog #72031 BPS Bioscience) 50-fold in acetic acid. 100 μl of the supernatant taken from the centrifuged plate was transferred to a new transparent 96-well plate and then 100 μl of the detection reagent solution was added thereto. After reacting at room temperature for 10 minutes, absorbance was measured at 480 nm wavelength. For analysis of the results, the absorbance (At) of the well containing HEK293 cells in which IDO protein was expressed without treatment of an inhibitor was 100%; and the absorbance (Ab) of the well containing HEK293 cells in which IDO protein was not expressed was 0. The % absorbance was calculated according to the following equation: % Absorbance=(A−Ab)/(At−Ab), A=absorbance of the well treated with the test compound.
For the compound `COc1cccc2c(N[C@H](C)C[C@H]3CC[C@H](c4ccnc5ccc(F)cc54)CC3)nc(Cl)nc12` [Example 52, 2-chloro-N-((R)-1-((trans)-4-(6-fluoroquinolin-4-yl)cyclohexyl)propan-2-yl)-8-methoxyquinazolin-4-amine], the IC50 was determined as 260 nM. Turning to `C[C@H](C[C@H]1CC[C@H](c2ccnc3ccc(F)cc32)CC1)Nc1nc(Cl)nc2cc(Br)ccc12` [Example 56, 7-bromo-2-chloro-N-((R)-1-((trans)-4-(6-fluoroquinolin-4-yl)cyclohexyl)propan-2-yl)quinazolin-4-amine], the IC50 amounted to 19.3 nM. Under `C[C@H](C[C@H]1CC[C@H](c2ccnc3ccc(F)cc32)CC1)Nc1nc(Cl)nc2ccc(Cl)cc12` [Example 49, 2,6-dichloro-N-((R)-1-((trans)-4-(6-fluoroquinolin-4-yl)cyclohexyl)propan-2-yl)quinazolin-4-amine] stands 72 nM; under `C[C@H](C[C@H]1CC[C@@H](c2ccnc3ccc(F)cc32)CC1)Nc1nc2cc(F)c(Cl)cc2o1` [Example 43, 6-chloro-5-fluoro-N-((R)-1-((cis)-4-(6-fluoroquinolin-4-yl)cyclohexyl)propan-2-yl)benzo[d]oxazol-2-amine], 6.3 nM; under `C[C@H](C[C@H]1CC[C@H](c2ccnc3ccc(F)cc32)CC1)Nc1nc(Cl)nc2cc(C(F)(F)F)ccc12` [Example 58, 2-chloro-N-((R)-1-((trans)-4-(6-fluoroquinolin-4-yl)cyclohexyl)propan-2-yl)-7-(trifluoromethyl)quinazolin-4-amine], 16.8 nM. Consider `C[C@H](C[C@H]1CC[C@H](c2ccnc3ccc(F)cc32)CC1)Nc1nc(Cl)nc2cc(C#N)ccc12` [Example 55, 2-chloro-4-(((R)-1-((trans)-4-(6-fluoroquinolin-4-yl)cyclohexyl)propan-2-yl)amino)quinazolin-7-carbonitrile], for which the half-inhibitory concentration (IC50) came to 28.2 nM.

Regarding `C[C@H](C[C@H]1CC[C@@H](c2ccnc3ccc(F)cc32)CC1)Nc1nc(Cl)nc2cc(F)ccc12` [Example 62, 2-chloro-7-fluoro-N-((R)-1-((cis)-4-(6-fluoroquinolin-4-yl)cyclohexyl)propan-2-yl)quinazolin-4-amine], the 50% inhibitory concentration (IC50) came to 56.6 nM.

For `C[C@H](C[C@H]1CC[C@@H](c2ccnc3ccc(F)cc32)CC1)Nc1nc(Cl)nc2cc(C(F)(F)F)ccc12` [Example 66, 2-chloro-N-((R)-1-((cis)-4-(6-fluoroquinolin-4-yl)cyclohexyl)propan-2-yl)-7-(trifluoromethyl)quinazolin-4-amine], the IC50 amounted to 30.8 nM. Consider `COc1ccc2c(N[C@H](C)C[C@H]3CC[C@@H](c4ccnc5ccc(F)cc54)CC3)nc(Cl)nc2c1` [Example 67, 2-chloro-N-((R)-1-((cis)-4-(6-fluoroquinolin-4-yl)cyclohexyl)propan-2-yl)-7-methoxyquinazolin-4-amine], for which the IC50 worked out at 47.5 nM.

`C[C@H](C[C@H]1CC[C@@H](c2ccnc3ccc(F)cc32)CC1)Nc1nc(Cl)nc2c(Cl)cccc12` [Example 68, 2,8-dichloro-N-((R)-1-((cis)-4-(6-fluoroquinolin-4-yl)cyclohexyl)propan-2-yl)quinazolin-4-amine]: the IC50 stood at 50.5 nM.

In the case of `COc1ccc2nc(N[C@H](C)C[C@H]3CC[C@@H](c4ccnc5ccc(F)cc54)CC3)oc2c1F` [Example 42, 7-fluoro-N-((R)-1-((cis)-4-(6-fluoroquinolin-4-yl)cyclohexyl)propan-2-yl)-6-methoxybenzo[d]oxazol-2-amine], the IC50 was 6.6 nM. Under `C[C@H](C[C@H]1CC[C@@H](c2ccnc3ccc(F)cc32)CC1)Nc1nc2ccc(F)c(F)c2o1` [Example 47, 6,7-difluoro-N-((R)-1-((cis)-4-(6-fluoroquinolin-4-yl)cyclohexyl)propan-2-yl)benzo[d]oxazol-2-amine] stands 5.5 nM; under `C[C@H](C[C@H]1CC[C@@H](c2ccnc3ccc(F)cc32)CC1)Nc1nc(Cl)nc2cc(Cl)ccc12` [Example 40, 2,7-dichloro-N-((R)-1-((cis)-4-(6-fluoroquinolin-4-yl)cyclohexyl)propan-2-yl)quinazolin-4-amine], 21.9 nM.

For the compound `C[C@H](C[C@H]1CC[C@@H](c2ccnc3ccc(F)cc32)CC1)Nc1nc(Cl)nc2cc(Br)ccc12` [Example 64, 7-bromo-2-chloro-N-((R)-1-((cis)-4-(6-fluoroquinolin-4-yl)cyclohexyl)propan-2-yl)quinazolin-4-amine], the IC50 came out at 38.8 nM. Under `C[C@H](C[C@H]1CC[C@@H](c2ccnc3ccc(F)cc32)CC1)Nc1nc(Cl)nc2cc(C#N)ccc12` [Example 63, 2-chloro-4-(((R)-1-((cis)-4-(6-fluoroquinolin-4-yl)cyclohexyl)propan-2-yl)amino)quinazolin-7-carbonitrile] stands 27.5 nM; under `C[C@H](C[C@H]1CC[C@@H](c2ccnc3ccc(F)cc32)CC1)Nc1nc(Cl)nc2c(OC(F)(F)F)cccc12` [Example 71, 2-chloro-N-((R)-1-((cis)-4-(6-fluoroquinolin-4-yl)cyclohexyl)propan-2-yl)-8-(trifluoromethoxy)quinazolin-4-amine], 276 nM; under `C[C@H](C[C@H]1CC[C@@H](c2ccnc3ccc(F)cc32)CC1)Nc1nc2cc(F)ccc2o1` [Example 36, 5-fluoro-N-((R)-1-((cis)-4-(6-fluoroquinolin-4-yl)cyclohexyl)propan-2-yl)benzo[d]oxazol-2-amine], 5.7 nM. In the case of `C[C@H](C[C@H]1CC[C@H](c2ccnc3ccc(F)cc32)CC1)Nc1nc(Cl)nc2c(F)cccc12` [Example 50, 2-chloro-8-fluoro-N-((R)-1-((trans)-4-(6-fluoroquinolin-4-yl)cyclohexyl)propan-2-yl)quinazolin-4-amine] it was 62.3 nM; in that of `C[C@H](C[C@H]1CC[C@H](c2ccnc3ccc(F)cc32)CC1)Nc1nc(Cl)nc2ccc(F)cc12` [Example 48, 2-chloro-6-fluoro-N-((R)-1-((trans)-4-(6-fluoroquinolin-4-yl)cyclohexyl)propan-2-yl)quinazolin-4-amine], 45.4 nM; in that of `Cc1ccc2c(N[C@H](C)C[C@H]3CC[C@@H](c4ccnc5ccc(F)cc54)CC3)nc(Cl)nc2c1` [Example 65, 2-chloro-N-((R)-1-((cis)-4-(6-fluoroquinolin-4-yl)cyclohexyl)propan-2-yl)-7-methylquinazolin-4-amine], 16.1 nM. As for `C[C@H](C[C@H]1CC[C@@H](c2ccnc3ccc(F)cc32)CC1)Nc1nc2ccc(Cl)c(Cl)c2o1` [Example 46, 6,7-dichloro-N-((R)-1-((cis)-4-(6-fluoroquinolin-4-yl)cyclohexyl)propan-2-yl)benzo[d]oxazol-2-amine], the IC50 came to 17.2 nM. Regarding `COc1cccc2c(N[C@H](C)C[C@H]3CC[C@@H](c4ccnc5ccc(F)cc54)CC3)nc(Cl)nc12` [Example 70, 2-chloro-N-((R)-1-((cis)-4-(6-fluoroquinolin-4-yl)cyclohexyl)propan-2-yl)-8-methoxyquinazolin-4-amine], the concentration for half-maximal inhibition (IC50) turned out to be 114 nM. In the case of `C[C@H](C[C@H]1CC[C@@H](c2ccnc3ccc(F)cc32)CC1)Nc1nc(Cl)nc2ccc(F)cc12` [Example 60, 2-chloro-6-fluoro-N-((R)-1-((cis)-4-(6-fluoroquinolin-4-yl)cyclohexyl)propan-2-yl)quinazolin-4-amine] it was 61.1 nM.

In the case of `C[C@H](C[C@H]1CC[C@@H](c2ccnc3ccc(F)cc32)CC1)Nc1nc2cccc(F)c2o1` [Example 37, 7-fluoro-N-((R)-1-((cis)-4-(6-fluoroquinolin-4-yl)cyclohexyl)propan-2-yl)benzo[d]oxazol-2-amine], the IC50 came to 7.6 nM. In the case of `C[C@H](C[C@H]1CC[C@@H](c2ccnc3ccc(F)cc32)CC1)Nc1nc(Cl)nc2ccccc12` [Example 38, 2-chloro-N-((R)-1-((cis)-4-(6-fluoroquinolin-4-yl)cyclohexyl)propan-2-yl)quinazolin-4-amine] it was 23.7 nM; in that of `C[C@H](C[C@H]1CC[C@H](c2ccnc3ccc(F)cc32)CC1)Nc1nc(Cl)nc2cc(F)ccc12` [Example 54, 2-chloro-7-fluoro-N-((R)-1-((trans)-4-(6-fluoroquinolin-4-yl)cyclohexyl)propan-2-yl)quinazolin-4-amine], 43.6 nM. For the compound `C[C@H](C[C@H]1CC[C@H](c2ccnc3ccc(F)cc32)CC1)Nc1nc(Cl)nc2c(Cl)cccc12` [Example 51, 2,8-dichloro-N-((R)-1-((trans)-4-(6-fluoroquinolin-4-yl)cyclohexyl)propan-2-yl)quinazolin-4-amine], the IC50 was 124 nM.
